The supplement of paper PMC10307832

How the values were obtained:
Test in all cases: relative viability (nuclei count vs DMSO), 5 days (fraction); higher = more cells survive
[1] = compound: C1=CC=C2C(=C1)N=C(S2)C(C#N)C3=NC(=NC=C3)NCCC4=CN=CC=C4 + CC1(C)CCC(c2ccc(Cl)cc2)=C(CN2CCN(c3ccc(C(=O)NS(=O)(=O)c4ccc(N[C@H](CCN5CCOCC5)CSc5ccccc5)c(S(=O)(=O)C(F)(F)F)c4)cc3)CC2)C1 [Navitoclax] (partner 0.5 µM)
How it was run: (§1)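 Relative viability divides the nuclei count in treated wells by that in vehicle wells. Lung cancer cell lines were seeded in 1536-well plates, dosed by pin tool the next day, and fixed and stained after 5 days in one step with final 0.05% Triton X-100, 1% formaldehyde and 1 ug/ml Hoechst. Dosing was a single drug or a fixed anchor-drug dose plus five library-drug doses (not always all listed) in √10 steps, and values are medians of duplicate plates imaged at 4×.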

NVP-TAE684 + Bortezomib = compound: COc1cc(N2CCC(N3CCN(C)CC3)CC2)ccc1Nc1ncc(Cl)c(Nc2ccccc2S(=O)(=O)C(C)C)n1 [NVP-TAE684] + CC(C)C[C@H](NC(=O)[C@H](Cc1ccccc1)NC(=O)c1cnccn1)B(O)O [Bortezomib] (partner 0.002 µM)
How it was run: as §1

Vandetanib + Bortezomib = compound: COc1cc2/c(=N/c3ccc(Br)cc3F)nc[nH]c2cc1OCC1CCN(C)CC1 [Vandetanib] + CC(C)C[C@H](NC(=O)[C@H](Cc1ccccc1)NC(=O)c1cnccn1)B(O)O [Bortezomib] (partner 0.002 µM)
How it was run: as §1

Vandetanib + Phenformin = compound: COc1cc2/c(=N/c3ccc(Br)cc3F)nc[nH]c2cc1OCC1CCN(C)CC1 [Vandetanib] + N=C(N)NC(=N)NCCc1ccccc1 [Phenformin] (partner 250 µM)
How it was run: as §1

Row | Cell Line | relative viability ([1]; first compound 0.01581 µM) | relative viability ([1]; first compound 0.05 µM) | relative viability ([1]; first compound 0.1581 µM) | relative viability ([1]; first compound 0.5 µM) | relative viability (NVP-TAE684 + Bortezomib; first compound 0.2 µM) | relative viability (NVP-TAE684 + Bortezomib; first compound 0.6325 µM) | relative viability (NVP-TAE684 + Bortezomib; first compound 2 µM) | relative viability (Vandetanib + Bortezomib; first compound 0.02 µM) | relative viability (Vandetanib + Bortezomib; first compound 0.06325 µM) | relative viability (Vandetanib + Bortezomib; first compound 0.2 µM) | relative viability (Vandetanib + Bortezomib; first compound 0.6325 µM) | relative viability (Vandetanib + Bortezomib; first compound 2 µM) | relative viability (Vandetanib + Phenformin; first compound 0.02 µM) | relative viability (Vandetanib + Phenformin; first compound 0.06325 µM) | relative viability (Vandetanib + Phenformin; first compound 0.2 µM) | relative viability (Vandetanib + Phenformin; first compound 0.6325 µM) | relative viability (Vandetanib + Phenformin; first compound 2 µM) | relative viability ([1]; first compound 0.005 µM)
1 | NCI-H1792 | 0.571 | 0.631 | 0.961 | 0.451 | 0.779 | 0.967 | 0.819 | 0.994 | 0.926 | 0.914 | 0.865 | 0.887 | 0.298 | 0.236 | 0.184 | 0.254 | 0.175 | 
2 | NCI-H1915 | 0.805 | 0.762 | 0.77 | 0.775 | 1.09 | 1.03 | 1.05 | 0.947 | 0.885 | 1.07 | 0.973 | 0.943 | 0.366 | 0.353 | 0.387 | 0.372 | 0.365 | 0.802
3 | NCI-H1975 | 1.15 | 1.03 | 1.18 | 0.695 | 0.359 | 0.362 | 0.21 | 0.359 | 0.35 | 0.376 | 0.355 | 0.383 | 0.391 | 0.398 | 0.391 | 0.389 | 0.403 | 0.852
4 | NCI-H1993 | 0.802 | 0.896 | 0.929 | 0.81 |  | 1.09 | 0.806 | 1.03 | 0.905 | 1.04 | 0.807 | 0.719 | 0.523 | 0.506 | 0.554 | 0.605 | 0.53 | 0.911
5 | NCI-H2009 | 1.17 | 1.14 | 1.22 | 1.21 | 0.977 | 0.897 | 0.645 | 0.895 | 0.931 | 1.06 | 0.996 | 1.21 | 0.495 | 0.462 | 0.416 | 0.443 | 0.361 | 1.13
6 | NCI-H2023 | 0.979 | 0.948 | 1.13 | 0.707 |  | 0.944 | 0.268 | 0.924 | 0.839 | 0.96 | 1.03 | 1.04 | 0.399 | 0.402 | 0.354 | 0.323 | 0.328 | 0.971
7 | NCI-H2085 | 1.09 | 1.09 | 1.15 | 0.981 | 0.95 | 0.926 | 0.955 | 1.08 | 1.02 | 1.02 | 1.09 | 1.04 | 0.769 | 0.674 | 0.649 | 0.668 | 0.595 | 0.946
8 | NCI-H2087 | 1.01 | 1.16 | 1 | 0.927 | 0.998 | 0.789 | 0.886 | 0.813 | 0.761 | 0.859 | 0.857 | 0.833 | 0.415 | 0.45 | 0.457 | 0.447 | 0.44 | 0.986
9 | NCI-H2126 | 0.913 | 0.782 | 0.831 | 0.842 | 1.09 | 1.07 | 0.958 | 1.09 | 1.07 | 1.06 | 1.08 | 1.06 | 0.541 | 0.5 | 0.522 | 0.495 | 0.49 | 0.91
10 | NCI-H2228 | 1.39 | 0.827 | 0.997 | 0.954 | 0.633 | 0.33 | 0.214 | 0.775 | 0.942 |  | 1.03 | 0.814 | 0.263 | 0.281 | 0.384 | 0.294 | 0.303 | 0.915
11 | NCI-H2347 | 0.891 | 0.834 | 0.827 | 0.735 | 1.41 | 0.822 | 1.02 | 0.878 |  | 0.896 | 0.956 | 0.969 | 0.336 |  | 0.256 | 0.403 | 0.493 | 0.727
12 | NCI-H2405 | 0.936 | 0.815 | 0.862 | 0.859 | 0.941 | 0.986 | 0.82 | 0.96 | 0.9 | 0.985 | 0.948 | 1 | 0.376 | 0.302 | 0.374 | 0.39 | 0.202 | 0.828
13 | NCI-H3122 | 1.04 | 0.984 | 1.04 | 1.01 | 0.763 | 0.218 | 0.162 | 0.978 | 1.03 | 1.05 | 0.953 | 1 | 0.348 | 0.374 | 0.327 | 0.303 | 0.333 | 0.935
14 | PC-3 [JPC-3] | 0.835 | 0.731 | 0.819 | 0.843 | 0.99 |  | 0.731 | 0.828 | 0.738 | 0.646 | 0.734 | 0.431 | 0.471 | 0.466 | 0.496 | 0.334 | 0.331 | 0.776
15 | PC-14 | 1.13 | 1.09 | 1.09 | 0.851 |  | 0.928 | 0.964 | 1.03 | 0.939 | 1.05 | 0.295 | 0.258 | 0.576 | 0.478 | 0.215 | 0.235 | 0.125 | 0.808
16 | RERF-LC-KJ | 0.811 | 0.804 | 0.843 | 0.875 | 0.952 | 1.25 | 0.916 | 1.05 | 0.961 | 1.05 | 0.951 | 0.958 | 0.436 | 0.379 | 0.37 | 0.375 | 0.335 | 1.29
17 | SK-LU-1 | 0.828 | 0.694 | 1.02 | 1.02 | 1.21 | 1.08 | 1.01 | 1.23 | 1.01 | 1.21 | 1.39 | 0.467 | 0.518 | 0.405 | 0.464 | 0.491 | 0.558 | 
18 | SW 1573 | 1.15 |  | 1.03 | 0.828 | 1.02 |  | 0.927 | 1 | 0.817 | 1.16 | 1.01 | 0.879 | 0.357 | 0.382 | 0.397 | 0.347 | 0.351 | 0.863
